# Measured values as given in patent publication US20140309172A1, “ICE INHIBITING COMPOUNDS AND USES THEREOF” (priority 2010, published 2014).
# Key:
# [1] = Preliminary tests of blood-brain barrier penetration in animals; assay type: in vivo
# [2] = tested on: M17 cells overexpressing alpha-synuclein; assay: Cell viability of M17 cells overexpressing alpha-synuclein (LIVE/DEAD assay); assay type: cell-based, human
# Excerpt: Humans have 28 calpain and caspase isozymes—a large but not impossible number to test. RNAi was used to knock down each of these in turn in a neuronal cell culture model of PD. It is a neuroblastoma cell line (BE(2)-M17) carrying a wild-type α-synuclein overexpressing vector. BE(2)-M17 is a clone of the SK-N-BE(2) cell line that was established in November of 1972 from a bone marrow biopsy taken from a child with neuroblastoma. Synuclein on its own is not toxic to these cells, but it is toxic when combined with an oxidative stress agent such as rotenone or menadione. Greater than 90% reduction of mRNA levels for each of the 29 protease genes was routinely achieved, and greater than 50% reduction in protein levels (typically, about 70% reduction) was routinely achieved.
# A cell viability assay was performed using LIVE/DEAD (molecular probes) assay according to the manufacture instructions. As summarized in FIG. 10, both RNAi knockdown of caspase-1/ICE and treatment with the caspase-1/ICE inhibitor block synuclein fragment formation in nerve cells and should inhibit synuclein aggregation in neuronal cells derived from one or more mouse models of PD.
# [3] = tested on: M17 cells carrying empty pcDNA3 vector; assay: Cell viability of M17 cells with pcDNA3 empty vector in the presence of menadione; assay type: cell-based, human; settings: low concentrations of menadione, FIG. 8
Compound,BBB penetration [1],"rescue from alpha-synuclein-induced toxicity (cell viability) ([2]; M17 cells overexpressing alpha-synuclein, FIG. 10)","toxicity to M17 cells overexpressing a-synuclein ([2]; low concentrations of menadione, FIG. 8)",toxicity to M17 cells carrying empty pcDNA3 vector [3]
CC(C)(C)[C@H](NC(=O)c1ccc(N)c(Cl)c1)C(=O)N1CCC[C@H]1C(=O)N[C@H](C#N)CC(=O)O [NCGC00185682],low,–,–,–
CCO[C@@H]1OC(=O)C[C@@H]1NC(=O)[C@@H]1CCCN1C(=O)[C@@H](NC(=O)c1ccc(N)c(Cl)c1)C(C)(C)C [VX-765],low,rescued,–,–
CC1=CC(=O)c2ccccc2C1=O [menadione],–,–,toxic,not toxic
